Like-named read-outs stand apart in the source and are kept apart here.
Tests used:
Assay type in all cases: in vivo
[1] = test system: Eiysiphe graminis f. sp. tritici; experiment: Test A: wheat powdery mildew, preventive spray on wheat seedlings; conditions: for Test A disease control rating: wheat powdery mildew; for Test A disease control rating (100 = 100% disease control, 0 = no disease control): rating relative to controls
Outline: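 Preventive test: seedlings inoculated with powdery mildew spores one day after run-off spraying of a suspension. Ratings after 7 days in a 20° C growth chamber express percent disease control versus controls.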

Puccinia recondita = experiment: Test B: wheat leaf rust, preventive spray on wheat seedlings; conditions: for Test B disease control rating: wheat leaf rust; for Test B disease control rating (100 = 100% disease control, 0 = no disease control): rating relative to controls
Outline: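 Preventive test: P. recondita spores were applied one day after a run-off spray of compound suspension on wheat seedlings. Plants had 24 h at 20 °C in saturated air plus 6 days in a 20 °C growth chamber. Scoring is % disease control (100 = full) relative to controls.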

Pyricularia oryzae = conditions: for Test C disease control rating: rice blast; for Test C disease control rating (100 = 100% disease control, 0 = no disease control): rating relative to controls
Phytophthora infestans = conditions: for Test D disease control rating: tomato late blight; for Test D disease control rating (100 = 100% disease control, 0 = no disease control): rating relative to controls
Botrytis cinerea = experiment: Test E: gray mold, preventive spray on cucumber seedlings; conditions: for Test E disease control rating: gray mold on cucumber; for Test E disease control rating (100 = 100% disease control, 0 = no disease control): rating relative to controls
Outline: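 Preventive spray on cucumber seedlings used a suspension (3% acetone, 250 ppm Trem 014), applied to run-off one day before inoculation with Botrytis cinerea spores. Plants were held 48 h at 20° C in saturated air, then 5 days at 20° C. Percent disease control was scored relative to untreated plants.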

[2] = 100 = 100% disease control, 0 = no control relative to controls, unmarked entries (standard test concentration)
[3] = 100 = 100% disease control, 0 = no control, unmarked entries (standard test concentration)
[4] = wheat seedlings sprayed to run-off, inoculated the following day, unmarked compounds (standard test rate)
[5] = rice seedlings sprayed to run-off, inoculated the following day, unmarked compounds (standard test rate)
[6] = tomato seedlings sprayed to run-off, inoculated the following day, unmarked compounds (standard test rate)
[7] = cucumber seedlings sprayed to run-off, inoculated the following day, unmarked compounds (standard test rate)
[8] = tested at 40 ppm, wheat seedlings

Structure (SMILES) | Test A disease control rating [1, 2] | Test B disease control rating (Puccinia recondita; [3]) | Test C disease control rating (Pyricularia oryzae; [3]) | Test D disease control rating (Phytophthora infestans; [3]) | Test E disease control rating (Botrytis cinerea; [3]) | Test A disease control rating (100 = 100% disease control, 0 = no disease control) [1, 4] | Test B disease control rating (100 = 100% disease control, 0 = no disease control) (Puccinia recondita; [4]) | Test C disease control rating (100 = 100% disease control, 0 = no disease control) (Pyricularia oryzae; [5]) | Test D disease control rating (100 = 100% disease control, 0 = no disease control) (Phytophthora infestans; [6]) | Test E disease control rating (100 = 100% disease control, 0 = no disease control) (Botrytis cinerea; [7]) | also measured
CCc1ccccc1OCC(C)NC(=O)C(C#N)C(C)(C)C (mixture of isomers) [20b] | 0% | 0% | 100% | 0% | 0% | – | – | – | – | – | –
CC(COc1c(Cl)cccc1Cl)NC(=O)C(C#N)C(C)(C)C (mixture of isomers) [compound 34] | 62% | 85% | 91% | 0% | 0% | – | – | – | – | – | –
CCC1(C(=O)NC(C)COc2cc(Cl)cc(Cl)c2Cl)C(C)C1(Cl)Cl (centres unmarked) [compound 116] | – | – | – | – | – | – | – | – | – | – | Test A disease control rating ([1]; tested at 40 ppm): 21%; Test B disease control rating (Puccinia recondita; tested at 40 ppm): 0%; Test C disease control rating (Pyricularia oryzae; tested at 40 ppm): 0%; Test D disease control rating (Phytophthora infestans; tested at 40 ppm): 0%; Test E disease control rating (Botrytis cinerea; tested at 40 ppm): 0%
Cc1c(Cl)cc(C#N)n1OCC(C)NC(=O)C(C#N)C(C)C(C)(C)C (mixture of isomers) [71b] | – | – | – | – | – | – | – | – | – | – | Test A disease control rating ([1]; tested at 100 ppm): 0%; Test B disease control rating (Puccinia recondita; tested at 100 ppm): 0%; Test C disease control rating (Pyricularia oryzae; tested at 100 ppm): 0%; Test D disease control rating (Phytophthora infestans; tested at 100 ppm): 19%; Test E disease control rating (Botrytis cinerea; tested at 100 ppm): 0%
CC(COc1ccc(Cl)cc1)NC(=O)C(C#N)C(C)(C)C (single isomer, unassigned) [7a] | 77% | 85% | 91% | 89% | 0% | – | – | – | – | – | –
C#Cc1ccccc1OCC(C)NC(=O)C(C#N)C(C)(C)C (mixture of isomers) [compound 216] | – | – | – | – | – | 0% | 0% | 99% | 9% | 45% | –
C=CC(C)(C)C(C#N)C(=O)N[C@H](C)COc1cc(Cl)ccc1Cl (single isomer, unassigned) [215b] | – | – | – | – | – | 0% | 28% | 99% | 76% | 83% | –
CCC1(C(=O)NC(C)COc2cc(F)cc(F)c2Cl)C(C)C1(Cl)Cl (centres unmarked) [compound 318] | – | – | – | – | – | – | – | – | – | – | Test A disease control rating (100 = 100% disease control, 0 = no disease control) [1, 8]: 90%; Test B disease control rating (100 = 100% disease control, 0 = no disease control) (Puccinia recondita; [8]): 0%; Test C disease control rating (100 = 100% disease control, 0 = no disease control) (Pyricularia oryzae; tested at 40 ppm, rice seedlings): 53%; Test D disease control rating (100 = 100% disease control, 0 = no disease control) (Phytophthora infestans; tested at 40 ppm, tomato seedlings): 0%; Test E disease control rating (100 = 100% disease control, 0 = no disease control) (Botrytis cinerea; tested at 40 ppm, cucumber seedlings): 0%
CCC1(C(=O)NC(C)COc2c(F)cccc2C#N)C(C)C1(Cl)Cl (mixture of isomers) [compound 316] | – | – | – | – | – | 0% | 0% | 53% | 0% | 0% | –
CCC1(C(=O)NC(C)C=Cc2cc(F)ccc2F)C(C)C1(Cl)Cl (centres unmarked) [267b] | – | – | – | – | – | 92% | 0% | 100% | 0% | 55% | –
C=CCc1cccc(C)c1OCC(C)NC(=O)C1(CC)C(C)C1(Cl)Cl (centres unmarked) [compound 119] | 31% | 0% | 32% | 0% | 0% | – | – | – | – | – | –
CCC1(C(=O)NC(C)COc2cccc(F)c2)C(C)C1(Cl)Cl (mixture of isomers) [79a] | – | – | – | – | – | – | – | – | – | – | Test A disease control rating ([1]; tested at 40 ppm): 0%; Test B disease control rating (Puccinia recondita; tested at 40 ppm): 0%; Test C disease control rating (Pyricularia oryzae; tested at 40 ppm): 53%; Test D disease control rating (Phytophthora infestans; tested at 40 ppm): 0%; Test E disease control rating (Botrytis cinerea; tested at 40 ppm): 0%
CCC1(C(=O)NC(C)COc2ccccc2)C(C)C1(Cl)Cl (mixture of isomers) [77b] | – | – | – | – | – | – | – | – | – | – | Test A disease control rating ([1]; tested at 40 ppm): 33%; Test B disease control rating (Puccinia recondita; tested at 40 ppm): 0%; Test C disease control rating (Pyricularia oryzae; tested at 40 ppm): 74%; Test D disease control rating (Phytophthora infestans; tested at 40 ppm): 0%; Test E disease control rating (Botrytis cinerea; tested at 40 ppm): 0%
